# Key:
# Type in all cases: cell-based
# [1] = system: Human cecum-derived cell line NCI-H716; assay: GLP-1 secretion promoting activity in NCI-H716 cells; settings: 37° C., 60 minutes
# Method: Human cecum-derived cell line NCI-H716 (ATCC No. CCL-251) was cultured in 10% FBS-containing DMEM/Ham's F-12 medium at 37° C. in the presence of 5% CO2. The NCI-H716 cells were plated on a poly-D-lysine-coated 96-well plate in 100,000 cells/well, followed by culturing for 2 days. Prior to the addition of a sample, the wells were washed with Hepes buffer (20 mM Hepes, 146 mM NaCl, 5 mM KCl, 1.5 mM CaCl2, 1 mM MgSO4, 5.5 mM D-glucose, 0.2% BSA, pH 7.4). Then, 50 μl of a solution of the sample in the same buffer, and incubation was performed at 37° C. for 60 minutes. Compounds No. 1 (20 mM), No. 7 (20 mM), No. 21 (20 mM), No. 22 (20 mM), No. 33 (7.5 mM) and No. 34 (7.5 mM) listed in TABLE 1 were used as the sample. As for control, Hepes buffer was used. After the supernatant was collected, the cells were precipitated by centrifugation (5000×g, 1 minute) and the supernatant was recovered. The GLP-1 concentration in the supernatant was measured as follows by the method for GLP-1 quantification using the GLP-1 receptor gene expression cells.
# Human GLP-1 receptor gene (SEQ ID NO: 1) was incorporated into pcDNA3.1 in a conventional manner (López de Maturana R, Willshaw A, Kuntzsch A, Rudolph R, Donnelly D. J. Biol. Chem. 2003 Mar. 21; 278 (12): 10195-200.) to construct human GLP-1 receptor gene expression plasmid hGLP-1R/pcDNA3.1. Also, the chimeric gene (SEQ ID NO: 2) of human Gα15 gene and human gustducin gene was incorporated into pcDNA3.1 to construct G-protein expression plasmid Gα15-gust/pcDNA3.1. Using a transfection reagent FuGene 6 (Roche Japan, Inc.), hGLP-1R/pcDNA3.1 and Gα15-gust44/pcDNA3.1 were cotransfected to HEK293E cells (ATCC No. CRL-10852). After incubation in a CO2 incubator for 4 to 6 hours, the cells were suspended in 5% FBS-containing DMEM/Ham F12 and plated onto a poly-D-lysine-coated 96-well plate in 70,000 cells/well. After incubation for 24 hours in a CO2 incubator, changes in fluorescence intensity were begun to monitor immediately after the addition of a sample, using a FlexStation (Molecular Devices) according to the Ca^2+ fluorescence indicator FLIPR Calcium 4 Assay Kit protocol (Molecular Devices). Concentration dependence in response to changes in fluorescence intensity of human GLP-1 (7-36 amide; Peptide Institute, Inc.) was determined and used as a standard curve for quantitative determination of the sample. The expression plasmid used here may be constructed by the methods described in, e.g., Proc. Natl. Acad. Sci. USA. 1992 Sep. 15; 89 (18): 8641-5, FEBS Letters Volume 373, Issue 29, October 1995, Pages 182-186), The Journal of Neuroscience, Aug. 13, 2003, 23 (19): 7376-7380), etc.
# The amount of GLP-1 secreted when the measurement value of control obtained using the buffer was made 1 was expressed as a relative value.
# [2] = system: Human cecum-derived cell line NCI-H716; assay: CCK secretion promoting activity in NCI-H716 cells; settings: 37° C., 30 minutes
# Method: Human cecum-derived cell line NCI-H716 (ATCC No. CCL-251) was cultured in DMEM/Ham's F-12 medium containing 10% FBS at 37° C. in the presence of 5% CO2. The NCI-H716 cells were plated on a poly-L-lysine-coated 24-well plate in 600,000 cells/well, followed by culturing for 2 days. Prior to the addition of a sample, the wells were washed with Hepes buffer (20 mM Hepes, 146 mM NaCl, 5 mM KCl, 1.5 mM CaCl2, 1 mM MgSO4, 5.5 mM D-glucose, 0.02% BSA, pH 7.4). Then, 300 μl of a solution of the sample in the same buffer, and incubation was performed at 37° C. for 30 minutes. Compounds No. 1 (20 mM) No. 7 (2 mM), No. 21 (2 mM), No. 22 (2 mM), No. 33 (0.1 mM) and No. 34 (1 mM) listed in TABLE 2 were used as the sample. For control, Hepes buffer was used. After the supernatant was collected, the cells were precipitated by centrifugation (5000×g, 1 minute). The supernatant was recovered and lyophilized in a Speed Vac Concentrator from Savant Instruments Inc., and 60 μl of water was added thereto for dissolution. The CCK concentration in the solution was determined using an Enzyme Immunoassay Kit (EK-069-04; PHOENIX PHARMACEUTICALS).
# The amount of CCK secreted when the measurement value of control obtained using the buffer was made 1 was expressed as a relative value.
# [3] = target: T1, human CaSR (Homo sapiens, UniProt P41180); assay: Evaluation of CaSR agonist activity (Ca2+ fluorescence, FLIPR, 293E cells transfected with hCaSR/pcDNA3.1)
# T1 construct: expressed in transfected cells; host or cells: 293E cells (HEK293 cells expressing EBNA1, ATCC No. CRL-10852), transient transfection
# T1 sequence (P41180 20-1078): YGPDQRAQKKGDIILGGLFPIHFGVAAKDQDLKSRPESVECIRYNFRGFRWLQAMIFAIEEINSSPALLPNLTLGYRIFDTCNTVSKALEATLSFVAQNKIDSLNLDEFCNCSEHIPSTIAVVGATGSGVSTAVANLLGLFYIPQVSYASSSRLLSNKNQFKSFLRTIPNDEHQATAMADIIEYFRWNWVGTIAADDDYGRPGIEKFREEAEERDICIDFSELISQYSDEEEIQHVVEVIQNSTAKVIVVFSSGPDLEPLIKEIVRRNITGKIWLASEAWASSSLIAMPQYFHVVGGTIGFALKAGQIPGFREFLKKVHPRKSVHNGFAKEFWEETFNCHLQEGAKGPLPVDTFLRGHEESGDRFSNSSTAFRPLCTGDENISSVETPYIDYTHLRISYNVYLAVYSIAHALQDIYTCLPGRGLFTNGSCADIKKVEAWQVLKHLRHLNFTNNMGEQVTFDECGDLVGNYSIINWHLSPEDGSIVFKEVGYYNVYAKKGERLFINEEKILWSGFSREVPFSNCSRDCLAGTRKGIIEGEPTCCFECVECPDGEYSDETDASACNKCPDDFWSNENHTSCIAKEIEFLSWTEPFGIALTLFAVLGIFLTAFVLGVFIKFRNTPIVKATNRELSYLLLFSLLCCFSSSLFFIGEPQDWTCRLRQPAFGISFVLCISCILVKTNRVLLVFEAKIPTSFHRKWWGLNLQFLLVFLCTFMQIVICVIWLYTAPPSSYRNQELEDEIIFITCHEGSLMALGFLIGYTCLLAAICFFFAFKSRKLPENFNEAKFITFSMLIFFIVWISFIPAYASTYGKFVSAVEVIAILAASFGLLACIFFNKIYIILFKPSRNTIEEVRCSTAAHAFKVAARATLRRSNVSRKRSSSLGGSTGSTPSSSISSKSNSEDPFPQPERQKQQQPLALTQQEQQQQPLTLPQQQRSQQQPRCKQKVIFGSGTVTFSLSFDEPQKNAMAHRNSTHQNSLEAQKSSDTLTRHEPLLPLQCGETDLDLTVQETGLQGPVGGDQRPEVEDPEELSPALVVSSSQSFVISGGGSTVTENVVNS
# Method: The CaSR gene was prepared in accordance with the method described in Example 1 of WO 07/55393. Using the recombinant plasmid obtained, human CaSR expression plasmid hCaSR/pcDNA3.1 was prepared.
# 293E cells (HEK293 cells expressing EBNA1, ATCC No. CRL-10852) were cultured in DMEM (Dulbecco's Modified Eagle's Medium containing […], NACALAI TESQUE, INC.) containing 10% fetal calf serum, in the presence of 250 μg/ml of G418. The cells were spread on a Petri dish of 10 cm diameter in 1.8×10^6 cells/15 ml. After the cells were allowed to stand in a CO2 incubator (5% CO2, 37° C.) for 24 hours, human CaSR expression plasmid hCaSR/pcDNA3.1 was transfected with a transfection reagent Mirus TransIT 293 (Takara Bio Inc.). After the cells were allowed to stand in the CO2 incubator for 24 hours, the cells were collected by DMEM containing 10% fetal calf serum and plated on a poly-D-lysine coated 384 well plate (Falcon) in 15,000 cells/well. After the cells were allowed to stand in the CO2 incubator for 24 hours, the medium was removed. Then, 50 μL/well of Ca^2+ fluorescence indicator Calcium 4 Assay Kit (Molecular Devices) that was dissolved in an assay buffer (146 mM NaCl, 5 mM KCl, 1 mM MgSO4, 1 mg/ml glucose, 20 mM HEPES (pH 7.2) and 1.5 mM CaCl2) was added thereto, and allowed to stand at 37° C. for an hour and then at room temperature for 30 minutes to load the fluorescence indicator. The 384 well plate described above was transferred to FLIPR (Molecular Devices), and 12.5 μL/well of a compound that was dissolved in a 0.1% BSA containing-assay buffer was added thereto. Changes in fluorescence intensity were monitored for 3 minutes. Compound No. 20 was purchased from Bachem.
# [4] = 293E cells expressing human CaSR, 1.5 mM CaCl2 assay buffer, Table 5
# [5] = measured in a manner similar to Example III, Table 6
compound,measurement,setting,value
N[C@@H](COC(=O)Nc1cc(Cl)cc(S(=O)(=O)O)c1O)C(=O)O [Compound 34],"Relative Value (amount of GLP-1 secreted, buffer control = 1)",[1]; sample 7.5 mM,2.88
same,"Relative Value (amount of CCK secreted, buffer control = 1)",[2]; sample 1 mM,1.77
"N[C@@H](COC(=O)N(O)c1cccc(S(=O)(=O)O)c1)C(=O)O [Compound 43, 0-{[hydroxy(3-sulfophenyl)amino]carbonyl}-L-serine]",EC50,[3]; [4],43 nM
"N[C@@H](CCC(=O)N(O)c1cccc(S(=O)(=O)O)c1)C(=O)O [Compound 42, N^5-hydroxy-N^5-(3-sulfophenyl)-L-glutamine]",EC50,[3]; [4],31 nM
"N[C@@H](CCC(=O)Nc1cc(Cl)cc(S(=O)(=O)O)c1O)C(=O)O [Compound 7, N^5-(5-chloro-2-hydroxy-3-sulfophenyl)-L-glutamine]","Relative Value (amount of GLP-1 secreted, buffer control = 1)",[1]; sample 20 mM,2.90
same,"Relative Value (amount of CCK secreted, buffer control = 1)",[2]; sample 2 mM,1.99
"COC(=O)[C@@H](N)COC(=O)Nc1cc(Cl)c(C)c(S(=O)(=O)O)c1 [Compound 49, 5-({[(2S)-2-amino-3-methoxy-3-oxopropoxy]carbonyl}amino)-3-chloro-2-methylbenzene-1-sulfonic acid]",EC50,[3]; [5],110 nM
"N[C@@H](CCC(=O)Nc1cccc(S(=O)(=O)O)c1)C(=O)O [Compound 1, N^5-(3-sulfophenyl)-L-glutamine]","Relative Value (amount of GLP-1 secreted, buffer control = 1)",[1]; sample 20 mM,1.82
same,"Relative Value (amount of CCK secreted, buffer control = 1)",[2]; sample 20 mM,2.16
"Cc1c(Cl)cc(S(=O)(=O)O)cc1NC(=O)CC[C@H](N)C(=O)O [Compound 22, N^5-(3-chloro-2-methyl-5-sulfophenyl)-L-glutamine]","Relative Value (amount of GLP-1 secreted, buffer control = 1)",[1]; sample 20 mM,2.22
same,"Relative Value (amount of CCK secreted, buffer control = 1)",[2]; sample 2 mM,2.49
"CCOC(=O)[C@@H](N)CCC(=O)Nc1cc(Cl)cc(S(=O)(=O)O)c1O [Compound 50, 3-[(4S)-4-amino-5-ethoxy-5-oxopentanamido]-5-chloro-2-hydroxybenzene-1-sulfonic acid]",EC50,[3]; [5],4 nM
"COC(=O)[C@@H](N)CCC(=O)Nc1cccc(S(=O)(=O)O)c1 [Compound 44, 3-[(4S)-4-amino-5-methoxy-5-oxopentanamido]benzene-1-sulfonic acid]",EC50,[3]; [5],23 nM
"Cc1c(Cl)cc(NC(=O)CC[C@H](N)C(=O)O)cc1S(=O)(=O)O [Compound 21, N^5-(3-chloro-4-methyl-5-sulfophenyl)-L-glutamine]","Relative Value (amount of GLP-1 secreted, buffer control = 1)",[1]; sample 20 mM,4.38
same,"Relative Value (amount of CCK secreted, buffer control = 1)",[2]; sample 2 mM,4.54
"Cc1c(Cl)cc(NC(=O)OC[C@H](N)C(=O)O)cc1S(=O)(=O)O [Compound 33, O-{[(3-chloro-4-methyl-5-sulfophenyl)amino]carbonyl}-L-serine]","Relative Value (amount of GLP-1 secreted, buffer control = 1)",[1]; sample 7.5 mM,1.87
same,"Relative Value (amount of CCK secreted, buffer control = 1)",[2]; sample 0.1 mM,1.51

# Source: patent publication US8877739B2, “Prophylactic agent or therapeutic agent for diabetes or obesity” (Ajinomoto Co., Inc., priority 2010, dated 2014)
